Assay results from article PMC4349585 (Journal of medicinal chemistry, 2015).

Tested on: PC-3 cells
Test: Cofilin phosphorylation Western blot in PC-3 cells stimulated by HGF
Type: cell-based
Conditions: 50 nM

`Cc1c[nH]c2ncnc(-c3ccc(NC(=O)N(CCO)c4ccccc4)cc3)c12` [Compound 18b, 1-(2-Hydroxyethyl)-3-(4-(5-methyl-7H-pyrrolo[2,3-d]pyrimidin-4-yl)phenyl)-1-phenylurea] was tested, and the “inhibition of cofilin phosphorylation in PC-3 cells (Western blot)” value was “significant inhibition”.
